Data reported in US9434724B2, “Quinuclidines for modulating alpha 7 activity” (priority 2014, dated 2016).

Target: rat brain nicotinic receptor (α7 NAChR) (Rattus norvegicus (Rat), UniProt Q05941)
Sequence (Q05941 23-502 limits assumed): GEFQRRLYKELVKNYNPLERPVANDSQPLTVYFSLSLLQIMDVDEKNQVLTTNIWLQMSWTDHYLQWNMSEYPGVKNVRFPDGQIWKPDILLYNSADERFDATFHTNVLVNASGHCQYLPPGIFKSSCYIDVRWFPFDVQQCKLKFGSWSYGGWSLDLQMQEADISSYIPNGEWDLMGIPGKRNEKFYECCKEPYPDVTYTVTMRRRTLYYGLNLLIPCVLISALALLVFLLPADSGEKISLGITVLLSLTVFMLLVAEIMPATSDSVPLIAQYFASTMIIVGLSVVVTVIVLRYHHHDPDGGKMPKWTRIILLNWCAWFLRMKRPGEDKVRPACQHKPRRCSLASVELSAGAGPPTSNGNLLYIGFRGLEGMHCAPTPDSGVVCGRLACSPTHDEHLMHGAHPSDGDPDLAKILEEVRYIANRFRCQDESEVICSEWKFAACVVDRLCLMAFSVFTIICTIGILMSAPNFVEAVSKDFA
Experiment: not given
Type: binding
Conditions: not given
`COc1c(C)ccc2[nH]cc(C(=O)OCC34CCN(CC3)CC4)c12` [Compound 75, quinuclidin-4-ylmethyl 4-methoxy-5-methyl-1H-indole-3-carboxylate] showed an IC50 of 52.5 nM and a Ki of 45 nM. With `COc1cc2c(C(=O)OCC34CCN(CC3)CC4)c[nH]c2cc1C#N` [Compound 76, quinuclidin-4-ylmethyl 6-cyano-5-methoxy-1H-indole-3-carboxylate] the IC50 was 643 nM and the Ki was 552 nM. Work on `COc1cc(C#N)cc2[nH]cc(C(=O)OCC34CCN(CC3)CC4)c12` [Compound 77, quinuclidin-4-ylmethyl 6-cyano-4-methoxy-1H-indole-3-carboxylate] yielded an IC50 of 423 nM and a Ki of 363 nM. `Cc1cc2c(C(=O)OCC34CCN(CC3)CC4)c[nH]c2cc1Cl` [Compound 78, quinuclidin-4-ylmethyl 6-chloro-5-methyl-1H-indole-3-carboxylate] gave an IC50 of 1130 nM and a Ki of 970 nM. “quinuclidin-4-ylmethyl 6-fluoro-4-methoxy-1H-indole-3-carboxylate [Compound 82]” gave an IC50 of 412 nM and a Ki of 357 nM.

Tested on: not listed separately
Experiment: Human plasma stability
Type: in vitro ADME
Conditions: Protocol No. 2; plasma, 5 μM, 37° C.
Protocol: Protocol 1: Studies were carried out in human plasma. All plasma was obtained from Bioreclamation and collected on sodium heparin. Plasma was adjusted to pH 7.4. A DMSO stock was first prepared for the test compound. An aliquot of the DMSO solution was dosed into 1 mL of plasma, which had been pre-warmed to 37° C., at a final test compound concentration of 1 μM. The vials were kept in a benchtop Thermomixer® for the duration of the experiment. Aliquots (100 μL) were taken at each time point (0, 15, 30, 60, and 120 minutes) and added to 96-well plates which had been pre-filled with 300 μL of acetonitrile. Samples were stored at 4° C. until the end of the experiment. After the final time point was sampled, the plate was mixed and then centrifuged at 3,000 rpm for 10 minutes. Aliquots of the supernatant were removed, diluted 1:1 into distilled water, and analyzed by LC-MS/MS. The peak area response ratio to internal standard (PARR) of the compound at 15, 30, 60 and 120 minutes was compared to the PARR at time 0 to determine the percent of test compound remaining at each time point. Half-lives were calculated using GraphPad software, fitting to a single-phase exponential decay equation.
Protocol 2: Studies were carried out in plasma. Plasma was prepared under approval of IRB and IACUC on sodium heparin. The pH of plasma was monitored and used within the range of pH 7.4 to pH 8.0. DMSO stocks were prepared for the test compounds. Aliquots of the DMSO solutions were diluted to 0.05 mM by 0.05 mM Sodium phosphate buffer with 0.5% BSA. Then 10 μL of 0.05 mM solutions were dosed into 90 μL of plasma in duplicates (n=2), which had been pre-warmed to 37° C., at a final test compound concentration of 5 μM. The plates were kept in a 37° C. water bath for the duration of the experiment. At each time point (0, 5, 15, 30, 45, 60, and 120 minutes), 400 μL of acetonitrile was added into corresponding wells. After the final time point was sampled, the plates were shaken at the vibrator (IKA, MTS 2/4) for 10 min (600 rpm/min) and then centrifuged at 5594 g for 15 min (Thermo Multifuge×3R). Aliquots of the supernatant were removed, diluted 1:1 into distilled water, and analyzed by LC-MS/MS. The peak area response ratio to internal standard (PARR) of the compounds at 5, 15, 30, 45, 60, and 120 minutes was compared to the PARR at time 0 to determine the percent of test compound remaining at each time point. Half-lives were calculated using Excel software, fitting to a single-phase exponential decay equation.
With `COc1cc2c(C(=O)OCC34CCN(CC3)CC4)c[nH]c2cc1C.Cl` [Compound 79, quinuclidin-4-ylmethyl 5-methoxy-6-methyl-1H-indole-3-carboxylate hydrochloride] the “% Remaining @ 2 h” value was 56.12%. With “quinuclidin-4-ylmethyl 6-fluoro-4-methoxy-1H-indole-3-carboxylate [Compound 82]” the “% Remaining @ 2 h” value was 48.22% and the T1/2 was 124.43 min.

Same assay, conditions: human, plasma
For `COc1c(C)ccc2[nH]cc(C(=O)OCC34CCN(CC3)CC4)c12` [Compound 75, quinuclidin-4-ylmethyl 4-methoxy-5-methyl-1H-indole-3-carboxylate], the T1/2 was “∞”.

Same assay, conditions: human, plasma, 2 h, 5 μM
In the case of `COc1c(C)ccc2[nH]cc(C(=O)OCC34CCN(CC3)CC4)c12` [Compound 75, quinuclidin-4-ylmethyl 4-methoxy-5-methyl-1H-indole-3-carboxylate], the “% Remaining @ 2 h” value is reported as 120.98%. With `COc1cc2c(C(=O)OCC34CCN(CC3)CC4)c[nH]c2cc1C#N` [Compound 76, quinuclidin-4-ylmethyl 6-cyano-5-methoxy-1H-indole-3-carboxylate] the “% Remaining @ 2 h” value was 72.92%. With `COc1cc(C#N)cc2[nH]cc(C(=O)OCC34CCN(CC3)CC4)c12` [Compound 77, quinuclidin-4-ylmethyl 6-cyano-4-methoxy-1H-indole-3-carboxylate] the “% Remaining @ 2 h” value was 71.03%. For `Cc1cc2c(C(=O)OCC34CCN(CC3)CC4)c[nH]c2cc1Cl` [Compound 78, quinuclidin-4-ylmethyl 6-chloro-5-methyl-1H-indole-3-carboxylate], the “% Remaining @ 2 h” value was 77.57%. In the case of `O=C(OCC12CCN(CC1)CC2)c1c[nH]c2ccc3c(c12)OCCO3` [Compound 81, quinuclidin-4-ylmethyl 2,3-dihydro-7H-[1,4]dioxino[2,3-e]indole-9-carboxylate], the “% Remaining @ 2 h” value is reported as 70.89%. In the case of `COc1cc2c(C(=O)OCC34CCN(CC3)CC4)c[nH]c2cc1O` [Compound 86, quinuclidin-4-ylmethyl 6-hydroxy-5-methoxy-1H-indole-3-carboxylate], the “% Remaining @ 2 h” value is reported as 22.88%.

Tested on: not listed separately
Experiment: Metabolic stability assay in rat liver microsomes (RLM)
Type: in vitro ADME
Conditions: Protocol No. 1; rat liver microsomes, 1 μM
Protocol: (§1) Protocol 1: Studies were carried out in human and rat liver microsomes (“HLM” and “RLM,” respectively). Human and rat liver microsomes were purchased from BD Gentest. DMSO stocks were prepared for the test compounds. Aliquots of the DMSO solutions were diluted to 0.5 mM by acetonitrile, then further diluted by liver microsomes/buffer to 1.5 μM. 30 μL of 1.5 μM solutions were mixed with 15 μL of 6 mM NADPH, which had been pre-warmed to 37° C., at a final test compound concentration of 1 μM. The plates were kept in a 37° C. water bath for the duration of the experiment. At each time point (0, 5, 15, 30, 45 minutes), 135 μL of acetonitrile was added into corresponding wells. After the final time point was sampled, the plates were shaken at a vibrator (IKA, MTS 2/4) for 10 min (600 rpm/min) and then centrifuged at 5594 g for 15 min (Thermo Multifuge×3R). Aliquots of the supernatant were removed, diluted 1:1 into distilled water, and analyzed by LC-MS/MS. The peak area response ratio to internal standard (PARR) of the compounds at 5, 15, 30, 45 minutes was compared to the PARR at time 0 to determine the percent of test compound remaining at each time point. Half-lives were calculated using Excel software, fitting to a single-phase exponential decay equation.
(§2) Protocol 2: Studies were carried out in human and rat liver microsomes. Buffer solutions were prepared as follows: Buffer A: 1.0 L of 0.1 M monobasic Potassium Phosphate buffer containing 1.0 mM EDTA; Buffer B: 1.0 L of 0.1 M Dibasic Potassium Phosphate buffer containing 1.0 mM EDTA; Buffer C: 0.1 M Potassium Phosphate buffer, 1.0 mM EDTA, pH 7.4 by titrating 700 mL of buffer B with buffer A while monitoring with a pH meter.
(§3) Reference compound (Ketanserin) and test compound spiking solutions were prepared as follows: 500 μM spiking solution: add 10 μL of 10 mM DMSO stock solution into 190 μL ACN; 1.5 μM spiking solution in microsomes (0.75 mg/mL): add 1.5 μL of 500 μM spiking solution and 18.75 μL of 20 mg/mL liver microsomes into 479.75 μL of Buffer C.
(§4) NADPH stock solution (6 mM) was prepared by dissolving NADPH into buffer C.
(§5) Assay procedure: 30 μL of 1.5 μM spiking solution containing 0.75 mg/mL microsomes solution was dispensed to the wells designated for […]. The plate was pre-incubated at 37° C. for 10 minutes. 15 μL of NADPH stock solution (6 mM) was added to the wells designated as Time 45, and the timer was started. At 30 mM, 15 mM, and 5 mM, 15 μL NADPH stock solution (6 mM) was added to the wells, respectively. At the end of incubation (0 mM), 135 μL of ACN containing IS was added to all the wells. Then 15 μL of NADPH stock solution (6 mM) was added to the wells designated as Time 0. After quenching, the reaction mixtures were centrifuged at 3220 g for […]. Following centrifugation, 50 μL of the supernatant was transferred from each well into a 96-well sample plate containing 50 μL of ultra-pure water (Millipore) for LC/MS analysis. The peak area response (PARR) ratio to internal standard of the compounds at 5, 15, 30, and 45 minutes was compared to the PARR at time 0 to determine the percent of test compound remaining at each time point. Half-lives were calculated using Excel software, fitting to a single-phase exponential decay equation.
`COc1cc2c(C(=O)OCC34CCN(CC3)CC4)c[nH]c2cc1C.Cl` [Compound 79, quinuclidin-4-ylmethyl 5-methoxy-6-methyl-1H-indole-3-carboxylate hydrochloride] showed an RLM of 576.18 mL/min/kg. For “quinuclidin-4-ylmethyl 6-fluoro-4-methoxy-1H-indole-3-carboxylate [Compound 82]”, the RLM was 433.66 mL/min/kg.

Same assay, conditions: rat, microsomes, 1 μM
In the case of `COc1c(C)ccc2[nH]cc(C(=O)OCC34CCN(CC3)CC4)c12` [Compound 75, quinuclidin-4-ylmethyl 4-methoxy-5-methyl-1H-indole-3-carboxylate], the RLM is reported as 474.267 mL/min/kg. With `COc1cc2c(C(=O)OCC34CCN(CC3)CC4)c[nH]c2cc1C#N` [Compound 76, quinuclidin-4-ylmethyl 6-cyano-5-methoxy-1H-indole-3-carboxylate] the RLM was 41.0701 mL/min/kg. Compound `COc1cc(C#N)cc2[nH]cc(C(=O)OCC34CCN(CC3)CC4)c12` [Compound 77, quinuclidin-4-ylmethyl 6-cyano-4-methoxy-1H-indole-3-carboxylate] has an RLM of 87.668 mL/min/kg. `Cc1cc2c(C(=O)OCC34CCN(CC3)CC4)c[nH]c2cc1Cl` [Compound 78, quinuclidin-4-ylmethyl 6-chloro-5-methyl-1H-indole-3-carboxylate] gave an RLM of 679.777 mL/min/kg. For `O=C(OCC12CCN(CC1)CC2)c1c[nH]c2ccc3c(c12)OCCO3` [Compound 81, quinuclidin-4-ylmethyl 2,3-dihydro-7H-[1,4]dioxino[2,3-e]indole-9-carboxylate], the RLM was 75.96 mL/min/kg. Work on `COc1cc2c(C(=O)OCC34CCN(CC3)CC4)c[nH]c2cc1O` [Compound 86, quinuclidin-4-ylmethyl 6-hydroxy-5-methoxy-1H-indole-3-carboxylate] yielded an RLM of 17.38 mL/min/kg.

Tested on: not listed separately
Experiment: Metabolic stability assay in human liver microsomes (HLM)
Type: in vitro ADME
Conditions: Protocol No. 1; human liver microsomes, 1 μM
Protocol: as §1, §2, §3, §4, §5
In the case of `COc1cc2c(C(=O)OCC34CCN(CC3)CC4)c[nH]c2cc1C.Cl` [Compound 79, quinuclidin-4-ylmethyl 5-methoxy-6-methyl-1H-indole-3-carboxylate hydrochloride], the HLM is reported as 10.72 mL/min/kg. Work on “quinuclidin-4-ylmethyl 6-fluoro-4-methoxy-1H-indole-3-carboxylate [Compound 82]” yielded an HLM of 8 mL/min/kg.

Same assay, conditions: human, microsomes, 1 μM
With `COc1c(C)ccc2[nH]cc(C(=O)OCC34CCN(CC3)CC4)c12` [Compound 75, quinuclidin-4-ylmethyl 4-methoxy-5-methyl-1H-indole-3-carboxylate] the HLM was 5.749 mL/min/kg. In the case of `COc1cc2c(C(=O)OCC34CCN(CC3)CC4)c[nH]c2cc1C#N` [Compound 76, quinuclidin-4-ylmethyl 6-cyano-5-methoxy-1H-indole-3-carboxylate], the HLM is reported as 20.5897 mL/min/kg. For `COc1cc(C#N)cc2[nH]cc(C(=O)OCC34CCN(CC3)CC4)c12` [Compound 77, quinuclidin-4-ylmethyl 6-cyano-4-methoxy-1H-indole-3-carboxylate], the HLM was 10.4452 mL/min/kg. Compound `Cc1cc2c(C(=O)OCC34CCN(CC3)CC4)c[nH]c2cc1Cl` [Compound 78, quinuclidin-4-ylmethyl 6-chloro-5-methyl-1H-indole-3-carboxylate] has an HLM of 0 mL/min/kg. `O=C(OCC12CCN(CC1)CC2)c1c[nH]c2ccc3c(c12)OCCO3` [Compound 81, quinuclidin-4-ylmethyl 2,3-dihydro-7H-[1,4]dioxino[2,3-e]indole-9-carboxylate] gave an HLM of 5.94 mL/min/kg. For `COc1cc2c(C(=O)OCC34CCN(CC3)CC4)c[nH]c2cc1O` [Compound 86, quinuclidin-4-ylmethyl 6-hydroxy-5-methoxy-1H-indole-3-carboxylate], the HLM was 7.35 mL/min/kg.
